The test system of one assay is L1210. Nature of the assay: Cytotoxicity against mouse L1210 cells at 20 ug/cm'3. Format: functional.
The next assay concerns KB. Nature of the assay: Cytotoxicity against human KB cells at 20 ug/cm'3. Format: functional.

Each structure is given as a SMILES string.

`C#CC(O)/C=C/C(O)C/C=C/CC(O)C#CC(O)C#CC(O)CCC/C=C\CCCCCCCCC(O)C(=O)CCCCCCCCCC(O)CC(O)C#CC(=O)O` (configuration not stated) [NEPHELIOSYNE A]: the Activity with L1210 was 40%; with KB, 14%.

Source of the values: ChEMBL document CHEMBL1148064, “Nepheliosyne A, new C47 acetylenic acid from the Okinawan marine sponge Xestospongia sp” (1994).
